Test results reported in patent US10519177B2, “Heterocyclic compounds and uses thereof” (Plexxikon Inc., priority 2013, dated 2019).
Where two headings read alike, the source gives them in different places.

Experiments:
[1] = target: BRD4-BD12 (1-477) (Homo sapiens (Human), UniProt O60885); assay: Alphascreen binding assay BRD4-BD12; settings: BRD4(1 2) H4; read-out: Biochemical activity (IC50 μM) BRD4(1 2) H4
Method in brief: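 First, compound was preincubated 1 h at room temperature with the His-tagged BRD4 protein (BD1 44-164 or tandem BD12 1-477) and acetylated H4 peptide. Next, donor and acceptor beads were added at 7.5 μg/ml final. After 30 min, AlphaScreen emission was recorded.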

[2] = system: MV-4-11 cells; assay: Oncology cell growth assay MV-4-11 (CellTiter Glo); type: cell-based; settings: Homo sapiens, MV4-11, 72 h, read-out: Cell activity (IC50 μM) MV-4-11 3d-Growth
Method in brief: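 MV-4-11 AML cells (MLL-AF4), 3000 per well, exposed to 8-point 1:3 compound titration from 10 μM top concentration (0.2% DMSO) for 72 h. Viability by CellTiter Glo luminescence, normalized to DMSO controls; pIC50 from four-parameter curve fit.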

[3] = system: bromodomain; assay: at least one of the bromodomain cell assays of Example 57; type: cell-based; settings: at least one of the bromodomain cell assays described in Example 57; read-out: IC50 in at least one of the bromodomain cell assays

`CC[C@H](c1ccccc1)n1cc(-c2ccc(C(=O)O)cc2)c2ncc(-c3c(C)noc3C)cc21` [P-0570, 4-[6-(3,5-dimethylisoxazol-4-yl)-1-[(1R)-1-phenylpropyl]pyrrolo[3,2-b]pyridin-3-yl]benzoic acid] was tested, and the IC50 [1] was under 1 µM, the IC50 ([2]; MV-4-11, 3d growth) was under 1 µM and the IC50 [3] was under 10 µM.

`Cc1noc(C)c1-c1cnc2c(-c3ccc(-c4nnn[nH]4)cc3)cn([C@@H](C)c3ccccn3)c2c1` [P-0568, 3,5-dimethyl-4-[1-[(1S)-1-(2-pyridyl)ethyl]-3-[4-(1H-tetrazol-5-yl)phenyl]pyrrolo[3,2-b]pyridin-6-yl]isoxazole] was tested, and the IC50 [1] was under 1 µM, the IC50 ([2]; MV-4-11, 3d growth) was under 1 µM and the IC50 [3] was under 10 µM.

Compound `COC(=O)c1ccc(-c2cn(CC3CCCC3)c3cc(-c4c(C)noc4C)cnc23)cc1` [P-0550, methyl 4-[1-(cyclopentylmethyl)-6-(3,5-dimethylisoxazol-4-yl)pyrrolo[3,2-b]pyridin-3-yl]benzoate] has an IC50 [1] of under 1 µM, an IC50 ([2]; MV-4-11, 3d growth) of 1 to 10 µM and an IC50 [3] of under 10 µM.

Compound `[2H]C([2H])(C1CC(F)(F)C1)n1cc(I)c2ncc(-c3c(C)noc3C)cc21` [P-0254, 4-[1-[dideuterio-(3,3-difluorocyclobutyl)methyl]-3-iodo-pyrrolo[3,2-b]pyridin-6-yl]-3,5-dimethyl-isoxazole] has an IC50 [1] of under 1 µM, an IC50 [2] of under 1 µM and an IC50 [3] of under 10 µM.

`Cc1noc(C)c1-c1cnc2c(-c3ccc(NC(=O)NC4CC4)cc3)cn(CC3CCC(F)(F)CC3)c2c1` [P-0562, 1-cyclopropyl-3-[4-[1-[(4,4-difluorocyclohexyl)methyl]-6-(3,5-dimethylisoxazol-4-yl)pyrrolo[3,2-b]pyridin-3-yl]phenyl]urea] gave an IC50 [1] of under 1 µM, an IC50 ([2]; MV-4-11, 3d growth) of under 1 µM and an IC50 [3] of under 10 µM.

With `COc1ncc(-c2cnc3c(-c4cnn(CC(F)(F)F)c4)cn(CC4CCC(F)(F)CC4)c3c2)s1` [P-0452, 5-[1-[(4,4-difluorocyclohexyl)methyl]-3-[1-(2,2,2-trifluoroethyl)pyrazol-4-yl]pyrrolo[3,2-b]pyridin-6-yl]-2-methoxy-thiazole] the IC50 [1] was under 1 µM, the IC50 ([2]; MV-4-11, 3d growth) was 1 to 10 µM and the IC50 [3] was under 10 µM.

Work on `Cc1noc(C)c1-c1cnc2c(-c3ccc(CCC(=O)O)cc3)cn(CC3CCC(F)(F)CC3)c2c1` [P-0530, 3-[4-[1-[(4,4-difluorocyclohexyl)methyl]-6-(3,5-dimethylisoxazol-4-yl)pyrrolo[3,2-b]pyridin-3-yl]phenyl]propanoic acid] yielded an IC50 [1] of under 1 µM, an IC50 ([2]; MV-4-11, 3d growth) of under 1 µM and an IC50 [3] of under 10 µM.

In the case of `Cc1noc(C)c1-c1cnc2c(-c3cccc(CC(=O)O)c3)cn(CC3CCC(F)(F)CC3)c2c1` [P-0411, 2-[3-[1-[(4,4-difluorocyclohexyl)methyl]-6-(3,5-dimethylisoxazol-4-yl)pyrrolo[3,2-b]pyridin-3-yl]phenyl]acetic acid], the IC50 [1] is reported as under 1 µM, the IC50 [2] is reported as under 1 µM and the IC50 [3] is reported as under 10 µM.

Compound `COC(=O)c1ccc(-n2cc(CC3CCC(F)(F)CC3)c3cc(-c4c(C)noc4C)cnc32)cc1` [P-0544, methyl 4-[3-[(4,4-difluorocyclohexyl)methyl]-5-(3,5-dimethylisoxazol-4-yl)pyrrolo[2,3-b]pyridin-1-yl]benzoate] has an IC50 [1] of under 1 µM, an IC50 ([2]; MV-4-11, 3d growth) of 1 to 10 µM and an IC50 [3] of under 10 µM.

Compound `Cc1nnn(C)c1-c1cnc2c(-c3cnn(C(F)F)c3)cn(CC3CCC(F)(F)CC3)c2c1` [P-0357, 1-[(4,4-difluorocyclohexyl)methyl]-3-[1-(difluoromethyl)pyrazol-4-yl]-6-(3,5-dimethyltriazol-4-yl)pyrrolo[3,2-b]pyridine] has an IC50 [1] of under 1 µM, an IC50 [2] of under 1 µM and an IC50 [3] of under 10 µM.

In the case of `COC(=O)c1ccc(-c2cn(CC3(F)CCCCC3)c3cc(-c4c(C)noc4C)cnc23)cn1` [P-0453, methyl 5-[6-(3,5-dimethylisoxazol-4-yl)-1-[(1-fluorocyclohexyl)methyl]pyrrolo[3,2-b]pyridin-3-yl]pyridine-2-carboxylate], the IC50 [1] is reported as under 1 µM, the IC50 ([2]; MV-4-11, 3d growth) is reported as under 1 µM and the IC50 [3] is reported as under 10 µM.
